Laboratory results taken from US10864207B2, “Method of treating endothelial dysfunction” (Celagenex Research (India) Pvt. Ltd., priority 2019, dated 2020).

Key:
PGI2 gene = PGI2 gene expression by semi-quantitative RT-PCR in H9C2 cells; assay type: cell-based, rat; conditions: for PGI2 expression in % / Regulation in Terms of Folds PGI2: normalized to GAPDH; for Regulation in Terms of Folds PGI2: control = 1.00
Experimental: […] […] [Hunter C. Champion et al. PNAS, 2005; 102:5:1661-1666].
PGI2 were estimated for the test substance by gene expression method, where the level of expression of PGI2 expression on Rat Cardiomyocytes (H9C2) was determined with respect to untreated H9C2 cells.
(§1) The H9C2 cells treated with drug were subjected to cell lysis by treating with Tri-extraction reagent. Chloroform was added, to isolate the total RNA from the sample and subjected for centrifugation. Out of the three distinct layers observed, upper layer was collected in fresh tube and equal volume of isopropanol was added and incubated at −20° C. for 10 mins. After the incubation followed by centrifugation, appropriate volume of ethanol was added to resuspend the pellet. After incubation and centrifugation, the pellet was air dried and appropriate volume of TAE buffer was added. The isolated total RNA was further used for cDNA synthesis. cDNA was synthesized by priming with oligo-dT primers followed by reverse transcriptase enzyme treatment according to manufacturers protocol (Thermoscienctific). The cDNA thus synthesized was taken up for PCR for the amplification of PGI2 and GAPDH/β-Actin (internal control).
(§2) The mRNA expression levels of PGI2 were determined using semi-quantitative reverse transcriptase-polymerase chain reaction (RT-PCR). 50 μl of the reaction mixture was subjected to PCR for amplification of PGI2. cDNAs using specifically designed primers procured from Eurofins, India and GAPDH/β-Actin (House keeping genes) was co-amplified with each reaction as an internal control.
(§3) PGI2: 95° C. for 5 min followed by 35 cycles of denaturation at 95° C. for 30 seconds, annealing Tm for 30 seconds and extension at 72° C. for 45 seconds. This was followed by final extension at 72° C. for 10 min. The primers used in this example for I strand synthesis and IInd strand synthesis are disclosed in priority Indian Patent Application No. 201921000093, filed Jan. 2, 2019, which is incorporated herein by reference.

eNOS gene = eNOS gene expression by semi-quantitative RT-PCR in H9C2 cells; assay type: cell-based, rat; conditions: for eNOS expression in % / Regulation in Terms of Folds eNOS: normalized to β-Actin; for Regulation in Terms of Folds eNOS: control = 1.00
Experimental: The test substances were evaluated for their gene expression activity in H9C2 (rat cardiomyocytes) and the concentration of test substances (G1, G2 and G3) taken for gene expression studies was 500 μg/ml. […] [Hunter C. Champion, et al. “PNAS, 2005; 102:5:1661-1666.]
eNOS levels were estimated for the test substance by gene expression method, where the level of expression of eNOS expression on […] Cardiomyocytes (H9C2) was determined with respect to untreated H9C2 cells.
as §1, with “test samples” for “drug”, “added” for “added,”, “manufacturer's” for “manufacturers”, “eNOS” for “PGI2”, “GAPDH” for “GAPDH/β-Actin”
as §2, with “eNOS” for “PGI2”, “eNOS.” for “PGI2.”
as §3, with “eNOS:” for “PGI2:”, “temperature” for “Tm”

Structure (SMILES) | PGI2 gene expression increase as compared to the control (PGI2 gene; 500 μg/ml) | PGI2 expression in % (PGI2 gene; 500 μg/ml) | Regulation in Terms of Folds PGI2 (PGI2 gene; 500 μg/ml) | eNOS expression in % (eNOS gene; 500 μg/ml) | Regulation in Terms of Folds eNOS (eNOS gene; 500 μg/ml) | eNOS gene over-expression as compared to the control (eNOS gene; at tested doses (500 μg/ml)) | PGI2 expression in % (PGI2 gene; 250 μg/ml) | Regulation in Terms of Folds PGI2 (PGI2 gene; 250 μg/ml) | eNOS expression in % (eNOS gene; 250 μg/ml) | Regulation in Terms of Folds eNOS (eNOS gene; 250 μg/ml) | eNOS gene up-regulation over control (eNOS gene; standard sample (250 μg/ml))
C[n+]1cccc(C(N)=O)c1 [Group G1, N^1-methyl nicotinamide chloride] | 0.14 folds | 14% | 1.14 fold | 21% | 1.21 fold | 0.21 folds | – | – | – | – | –
O=[N+]([O-])OCC(CO[N+](=O)[O-])O[N+](=O)[O-] [Nitroglycerin, reference compound] | – | – | – | – | – | – | 29% | 1.29 fold | 56% | 1.56 fold | 0.56 fold
